One data set deals with T1, human DGAT1 (Homo sapiens, UniProt O75907).
T1 construct: made in house; host or cells: insect cells (sf9, sf21 or High Five) infected with baculovirus; total cell membranes
T1 sequence (O75907 1-488): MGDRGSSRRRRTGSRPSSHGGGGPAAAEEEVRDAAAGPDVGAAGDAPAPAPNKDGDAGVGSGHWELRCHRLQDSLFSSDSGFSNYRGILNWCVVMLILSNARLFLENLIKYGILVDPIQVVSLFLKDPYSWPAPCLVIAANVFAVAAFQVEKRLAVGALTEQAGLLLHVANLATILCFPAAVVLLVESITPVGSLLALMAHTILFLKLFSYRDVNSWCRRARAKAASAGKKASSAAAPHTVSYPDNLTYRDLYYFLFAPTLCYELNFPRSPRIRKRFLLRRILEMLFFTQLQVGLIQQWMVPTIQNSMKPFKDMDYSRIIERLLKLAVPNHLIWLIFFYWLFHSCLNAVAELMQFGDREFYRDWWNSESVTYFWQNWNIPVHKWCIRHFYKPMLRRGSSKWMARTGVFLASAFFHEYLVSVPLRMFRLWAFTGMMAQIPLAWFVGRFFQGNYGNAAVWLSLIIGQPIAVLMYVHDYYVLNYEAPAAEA
The experiment in a line: DGAT Scintillation Proximity Assay (SPA) with membranes of insect cells expressing human flagtag DGAT1. In kind it is biochemical. The note with it: read-out: hDGAT1 IC50. The method in brief:
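Membranes (0.2 μg/well) from insect cells expressing human flag-tagged DGAT1 incubated with 10 μM compound and 200 μM dioleoyl glycerol substrate; mercuric chloride as inhibition control. Reaction stopped with WGA SPA beads in mercuric chloride, overnight bead coupling, then scintillation proximity signal read.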
On the technique in general: Scintillation proximity formats need no separation of bound from free tracer.

Several values for one entry are separate records, joined by “and”; a condition that tells them apart may be missing. Identical values can stand only once.

In the case of `CC1(C)Oc2ncnc(N)c2N=C1c1ccc([C@H]2CC[C@H](C(=O)N3CCOCC3)CC2)cc1` [Example 2-239], the melting point – broadly, the temperature of the solid-liquid transition – is 233 to 235 °C. The IC50 (as a rule, the concentration that inhibits the measured activity by half) on human DGAT1 was > 100 nM.
`CC1(C)Oc2ncnc(N)c2N=C1c1ccc([C@H]2CC[C@H](CN3CCN(S(C)(=O)=O)CC3)CC2)cc1` [Example 2-240]: the melting point lay within 233 to 235 °C. At human DGAT1, the IC50 fell in the range of 10 to 100 nM.
As for `CC(C)C(=O)N1CCN(C[C@H]2CC[C@H](c3ccc(C4=Nc5c(N)ncnc5OC4(C)C)cc3)CC2)CC1` [Example 2-241], the melting point lay in the range of 120 to 126 °C. The IC50 at human DGAT1 lay in the range of 10 to 100 nM.
Regarding `CN(C[C@H]1CC[C@H](c2ccc(C3=Nc4c(N)ncnc4OC3(C)C)cc2)CC1)C(=O)CO` [Example 2-243], the melting point was 208 to 210 °C. The IC50 on human DGAT1 was 10 to 100 nM.
As for `CC1(C)Oc2ncnc(N)c2N=C1c1ccc([C@H]2CC[C@H](CN3CCNCC3)CC2)cc1` [Example 2-244], the melting point was 208 to 209 °C. On human DGAT1, the IC50 was 10 to 100 nM.
Turning to `CCCNC(=O)N1CCN(C[C@H]2CC[C@H](c3ccc(C4=Nc5c(N)ncnc5OC4(C)C)cc3)CC2)CC1` [Example 2-245], the melting point fell in the range of 180 to 182 °C. The IC50 at human DGAT1 lay in the range of 10 to 100 nM.
Regarding `CC1(C)Oc2ncnc(N)c2N=C1c1ccc([C@H]2CC[C@H](CN3CCN(C(N)=O)CC3)CC2)cc1` [Example 2-246], the melting point is 158 to 160 °C. Besides, the IC50 at human DGAT1 fell in the range of 10 to 100 nM.
The molecule `CC1(C)Oc2ncnc(N)c2N=C1c1ccc([C@H]2CC[C@H](CN3CCN(C(=O)CO)CC3)CC2)cc1` [Example 2-247] displayed a melting point of 205 to 206 °C. Moreover, on human DGAT1, the IC50 fell in the range of 10 to 100 nM.
`CC(C)(O)C(=O)N1CCN(C[C@H]2CC[C@H](c3ccc(C4=Nc5c(N)ncnc5OC4(C)C)cc3)CC2)CC1` [Example 2-248] registered a melting point of 207 to 208 °C. Further, at human DGAT1, the IC50 was in the range of 10 to 100 nM.
`CC(=O)N1CCN(C[C@H]2CC[C@H](c3ccc(C4=Nc5c(N)ncnc5OC4(C)C)cc3)CC2)CC1` [Example 2-249] displayed a melting point of 202 to 203 °C. At human DGAT1, the IC50 lay in the range of 10 to 100 nM.
The molecule `CC1(C)Oc2ncnc(N)c2N=C1c1ccc([C@H]2CC[C@H](C(=O)N3C[C@@H](O)[C@@H](O)C3)CC2)cc1` [Example 2-250] returned a melting point of 220 to 240 °C. Also, the IC50 at human DGAT1 lay within 10 to 100 nM.
Consider `CC1(C)Oc2ncnc(N)c2N=C1c1ccc([C@H]2CC[C@H](CN3CCC(C(N)=O)CC3)CC2)cc1` [Example 2-251], for which the melting point fell in the range of 159 to 164 °C. Besides, at human DGAT1, the IC50 is 10 to 100 nM.
As for `CCNS(=O)(=O)C[C@H]1CC[C@H](c2ccc(C3=Nc4c(N)ncnc4OC3(C)C)cc2)CC1` [Example 2-252], the melting point was 209 to 211 °C. Moreover, on human DGAT1, the IC50 fell in the range of 10 to 100 nM.
For the molecule `CC1(C)Oc2ncnc(N)c2N=C1c1ccc([C@H]2CC[C@H](CSCC(=O)O)CC2)cc1` [Example 2-253], the melting point is 248 °C (dec.). The IC50 at human DGAT1 is < 10 nM.
The matching figures for `CC1(C)Oc2ncnc(N)c2N=C1c1ccc([C@H]2CC[C@H](C(=O)CO)CC2)cc1` [Example 2-254]: 213 to 214 °C and 10 to 100 nM.
For `Cc1nc(N)c2c(n1)OC(C)(C)C(c1ccc([C@H]3CC[C@H](C(=O)O)CC3)cc1)=N2` [Example 2-255], the melting point was > 250 °C. The IC50 on human DGAT1 is 10 to 100 nM.
With `Cc1nc(N)c2c(n1)OC(C)(C)C(c1ccc([C@H]3CC[C@H](C(=O)NS(C)(=O)=O)CC3)cc1)=N2` [Example 2-256], the melting point is 172 to 175 °C. Besides, the IC50 on human DGAT1 was in the range of 10 to 100 nM.
With `Cc1nc(N)c2c(n1)OC(C)(C)C(c1ccc([C@H]3CC[C@H](C(=O)NC(C)(C)CO)CC3)cc1)=N2` [Example 2-257], the melting point lay in the range of 220 to 225 °C. Moreover, the IC50 on human DGAT1 is 10 to 100 nM.
For the molecule `Cc1nc(N)c2c(n1)OC(C)(C)C(c1ccc([C@H]3CC[C@H](C(=O)N4C[C@@H](O)[C@@H](O)C4)CC3)cc1)=N2` [Example 2-258], the melting point is > 250 °C. For the same molecule, the IC50 on human DGAT1 is 10 to 100 nM.
Molecule `Cc1nc(N)c2c(n1)OC(C)(C)C(c1ccc([C@H]3CC[C@H](CSCC(=O)O)CC3)cc1)=N2` [Example 2-259] displayed a melting point of 271 to 277 °C. Besides, the IC50 at human DGAT1 was in the range of 10 to 100 nM.
Take `Cc1nc(N)c2c(n1)OC(C)(C)C(c1ccc([C@H]3CC[C@H](CSC(C)(C)C(=O)O)CC3)cc1)=N2` [Example 2-260]: the melting point lay in the range of 235 to 239 °C. At human DGAT1, the IC50 lay within 10 to 100 nM.
The corresponding values for `Cc1nc(N)c2c(n1)OC(C)(C)C(c1ccc([C@H]3CC[C@H](CS(=O)(=O)CC(=O)O)CC3)cc1)=N2` [Example 2-261] are 225 to 227 °C and 10 to 100 nM.
As to `Cc1nc(N)c2c(n1)OC(C)(C)C(c1ccc([C@H]3CC[C@H](C[S+]([O-])CC(=O)O)CC3)cc1)=N2` (stereo partly shown) [Example 2-262], the melting point was > 166 °C. Besides, the IC50 at human DGAT1 fell in the range of 10 to 100 nM.
For the molecule `Cc1nc(N)c2c(n1)OC(C)(C)C(c1ccc([C@H]3CC[C@H](c4nn[nH]n4)CC3)cc1)=N2` [Example 2-263], the melting point is > 250 °C. The IC50 at human DGAT1 was < 10 nM.
Turning to `Cc1nc(N)c2c(n1)OC(C)(C)C(c1ccc([C@H]3CC[C@H](C(=O)Nc4nn[nH]n4)CC3)cc1)=N2` [Example 2-264], the melting point was > 250 °C. Further, the IC50 on human DGAT1 was in the range of 10 to 100 nM.
As to `CC(=O)N1CCC(c2ccc(C3=Nc4c(N)ncnc4OC3(C)C)cc2)CC1` [Example 3-3], the melting point lay in the range of 232 to 237 °C. The 50% inhibitory concentration (IC50) on human DGAT1 was > 100 nM.
Regarding `CC1(C)Oc2ncnc(N)c2N=C1c1ccc(C2CCN(C(=O)C(=O)O)CC2)cc1` [Example 3], the melting point was 188 to 190 °C and 188.8 to 190.9 °C. On human DGAT1, the IC50 lay in the range of 10 to 100 nM.
In turn, `CCOC(=O)C1CCN(c2ccc(C3=Nc4c(N)ncnc4OC3(C)C)cc2)CC1` [Example 4-3] had a melting point of 176 to 177 °C. Moreover, the IC50 on human DGAT1 was > 100 nM.
In the case of `CC1(C)Oc2ncnc(N)c2N=C1c1ccc(N2CCC(C(=O)O)CC2)cc1` [Example 4-4], the melting point was > 240 °C. Besides, the IC50 at human DGAT1 lay within 10 to 100 nM.
Regarding `CCOC(=O)N1CCN(c2ccc(C3=Nc4c(N)ncnc4OC3(C)C)cc2)CC1` [Example 4-5], the melting point was 174 to 175 °C. For the same molecule, the IC50 on human DGAT1 was > 100 nM.
In turn, `CC1(C)Oc2ncnc(N)c2N=C1c1ccc(N2CCCC2)cc1` [Example 4-6] returned a melting point of 191 to 196 °C. Moreover, the IC50 at human DGAT1 is > 100 nM.
The matching figures for `CC1(C)Oc2ncnc(N)c2N=C1c1cccc(OCc2ccccc2)c1` [Example 5-2]: 130 to 131 °C and > 100 nM.
The matching figures for `CC1(C)Oc2ncnc(N)c2N=C1c1cccc(OCC2CCCCC2)c1` [Example 5-3]: 151 to 152 °C and > 100 nM.
On to `CC1(C)Oc2ncnc(N)c2N=C1c1cccc(Cl)c1` [Example 5], for which the melting point was 117 to 133 °C and 117.2 to 133.4 °C. Further, on human DGAT1, the IC50 is > 100 nM.
Consider `Cc1nc(N)c2c(n1)OC(C)(C)C(c1ccc([C@H]3CC[C@H](CNC(=O)CO)CC3)c(Cl)c1)=N2` [Example 6-2], for which the melting point is 229 to 232 °C. Moreover, the IC50 at human DGAT1 lay in the range of 10 to 100 nM.

These data come from patent US7244727B2, “Fused bicyclic nitrogen-containing heterocycles” (Japan Tobacco Inc., priority 2002, dated 2007).
